Patent US20230226135A9, “ACETYLCHOLINE MODULATION OF IMMUNE FUNCTION” (BCell Solutions, Inc., priority 2019, published 2023)
“Also recorded” adds a separate entry of the source.

Assays:
IL1b, IL6 and IL17 = test: TBI-induced changes in brain cytokines; type: in vivo, mice; conditions: CAP i.p. 30 minutes after TBI, brains harvested 24 hours after TBI; not significant, under-powered
Protocol: FIG. 10. TBI-induced changes in brain cytokines. TBI induced increase in brain IL1b, IL6 and IL17 are reversed by CAP. Cap was administered i.p. 30 minutes after TBI and brains were harvested 24 hours after TBI.
In a separate study, preeclampsia was induced in pregnant mice by injection of either the toll-like receptor 3 (TLR3) agonist, PolyI:C, or with the toll-like receptor 8 ([…]) agonist R837. […] It is pertinent to note that this power issue has been corrected.

[1] = tested on: blood brain barrier (BBB); test: Intravital microscopy of BBB permeability and lymphocyte adhering/rolling in pial venules; type: in vivo, C57 BL/6J mice
Excerpt: Whether intranasal infection with Streptococcus pyogenes would induce blood-brain barrier permeability in C57 BL/6J mice by a TLR-dependent mechanism was examined. Immediately following craniotomy, mice were placed under an intravital microscope to study vascular permeability and leukocytes. Permeability of cerebral blood vessels was observed using FITC-dextran fluorescent dye and, tracing of leukocytes is observed by labeling such cells with Rhodamine-6G. Intranasal infection with Streptococcus pyogenes (gram positive) increased BBB permeability (FIG. 4) and the number of adherent or rolling lymphocytes (FIG. 4) within 24 hours post-infection, compared to saline treated controls.
Methods: To test the hypothesis that intranasal infection may increase BBB permeability, we exposed mice to GAS via intranasal infection with Streptococcus pyogenes (GAS). We assessed BBB permeability using intravital microscopy, and we characterized the immune response to GAS using flow cytometric analysis of nasal associated lymphoid tissue (NALT), spleen, and brain.
Intranasal infection: Isoflurane gas was employed to briefly anesthetize mice (1-2 minutes). Once anesthetized, 7.5 uL of streptococcal bacterial suspension (OD600=0.5-0.6) was placed on each nares (outer nostril) of mouse. Control mice received intranasal inoculation with vehicle (PBS). The droplets were inhaled into nasal sinuses. This small volume avoids inoculation of the lungs, but reproducibly results in colonization of nasal-associated lymphoid tissue (NALT, Park 2003; Wang 2010).
Intraperitoneal injection: The TLR 1/2 agonist, Pam-3-Cys (25 ug/mouse; Pam3CSK4, InvivoGen, San Diego Calif.) was intraperitoneally (right side) injected into mice 24 hours before intravital microscopy. P3C causes immune cell activation and polycolonal expansion of B-lymphocytes by Toll-Like receptor ligation (Newell 2010). Control mice received equal volume of vehicle (PBS) intraperitoneally.
MHC class II-targeted proprietary peptide (TPP, Elim Biopharmaceuticals Inc., Hayward Calif.; also see Newell 2010) was administered intraperitoneally (5 ug/mouse, left side), sometimes in conjunction with P3C (right side). TPP was dissolved in DMSO for a final concentration of 2.5% DMSO in PBS. Control mice received vehicle (2.5% DMSO in PBS) intraperitoneally.
Preparation of Mice: Mice were anesthetized with an (i.p.) injection of 50% urethane (Sigma-Aldrich, U2500) in PBS ([…]) and maintained on heating pad. Anesthetic plane was assessed throughout preparation and experiments, by response to toe pinch. If needed, urethane supplement was given at 10% of original dose volume. To prepare mice tails for intravenous (i.v.) dye injection we maintained anesthetized mice on a heating pad for 10-15 minutes, and then briskly wiped tails (toward tail-end) with 70% ethanol wipes to remove scales/hair and increase vasodilation. Immediately following tail wiping, Fluorescein dextran 10 kDa (10 mg/mL, Sigma-Aldrich, FD10S) was administered (2 uL/g mouse) via right lateral tail vein and, Rhodamine 6G (0.2 mg/mL, Sigma-Aldrich, 83697) was administered (1.6 uL/g mouse) via left lateral tail vein. When needed, tail was wiped multiple times to ensure clear visualization of tail veins. Following successful (i.v.) injection of dyes, mice underwent craniotomy.
Craniotomy: A craniotomy (removal of a small area of skull) was performed to expose the cerebrum and allow imaging of cerebral microvasculature (specifically pial vessels of pia mater). First, an incision across the midline of the scalp was made to expose the right parietal bone. The skull was then carefully marked with a waterproof marker, designating the area, 1 mm posterior from the Bregma and 4 mm lateral from the midline, to be removed (craniotomy diameter: 2.5 mm). Next, the craniotomy was performed with a drill ensuring the dura mater was not cut. […]

[2] = Preeclampsia model in pregnant mice (TLR agonists), blood pressure; type: in vivo; conditions: TLR agonist induced, CAP i.p. 2 mg/kg
Protocol: FIG. 15. CAP reverses inflammatory characteristics in a preeclampsia model. Pregnant mice were treated with TLR agonists (R837, Clo97, and PIC) to induce symptoms of preeclampsia followed by CAP treatment (shown as TPP).
Preeclampsia, a disease suffered by pregnant woman that is characterized by high blood pressure and signs of damage to other organ systems, most often the liver and kidneys, is often accompanied by inflammation. […] Preeclampsia is also associated with an elevated TH17 response, including elevated IL17a, and elevated IL17a is associated with human and experimental hypertension and poor perinatal outcomes. […] Therefore, the anti-inflammatory effects of CAP were associated with improved outcomes in this model.

IL1β and IL6 = test: Collagen-induced arthritis model (collagen emulsion in CFA), pro-inflammatory cytokines; type: in vivo, mice
Protocol: FIG. 8. Collagen-induced arthritis model. Animals were injected with a collagen emulsion in Complete Freunds Adjuvant (CFA) and treated with either CAP during early disease development or once arthritic disease was established.
Central to the overarching hypothesis, is the anti-inflammatory effects of CAP.
Rheumatoid arthritis (RA), an autoimmune condition caused by the immune system attacking healthy body tissue by directing antibodies to the lining of the joints, where they attack the tissue surrounding the joint. In an established mouse model of RA, induced by injection of collagen and Complete Freunds Adjuvant (CFA), there is an increase in the pro-inflammatory cytokines, IL1B and IL6 (FIG. 17). […] Therefore, different doses of CAP appear to be effective in the developing versus the established stages of the disease. These changes were accompanied by a reduction in peripheral B cells. These findings are important because IL6 and IL1B are differentially elevated depending on the severity of various infections, such as SARS-CoV-2. Thus, testing different doses of CAP at different stages of infection will be helpful to optimizing translational therapy.

[3] = TPP 5 ug/mouse i.p., 24 hours, listed as TPP

FRIMAVLAS [CAP, α7nAChR agonist]
brain IL1b, IL6 and IL17 (IL1b, IL6 and IL17): trend toward a reduction; also recorded: reversed | P3C-induced lymphocyte rolling ([1]; TPP 5 ug/mouse i.p. with P3C, 24 hours): reduced | P3C-induced lymphocyte adhering ([1]; TPP 5 ug/mouse i.p. with P3C, 24 hours, listed as TPP): reduced; also recorded: significantly reversed | streptococcal infection-induced lymphocyte adhering [1, 3]: significantly reversed | streptococcal infection-induced lymphocyte rolling [1, 3]: reversed; also recorded: reduced | size of adherent cells ([1]; TPP in infected or P3C treated mice): did not attenuate | elevated blood pressure [2]: significantly reduced | reducing IL1β and IL6 (IL1β and IL6; 0.2 mg/kg i.p., developing stage): most efficacious | reducing IL1β and IL6 (IL1β and IL6; 20 mg/kg i.p., established stage): most efficacious | peripheral B cells (IL1β and IL6; RA model, CAP i.p.): reduction | cytokines (IL1β and IL6; early or established disease, particularly in the established (late stage) model): dose dependent reduction | reducing IL1B and IL6 (IL1β and IL6; i.p. 2 mg/kg, developing stage): most efficacious
